One assay addresses GSPT1 (Homo sapiens, UniProt P15170+Q96SW2). Type of assay: cell-based. The procedure: GSPT1_HiBIT_HEK293 cells were culture in DMEM medium with 10% FBS under standard tissue culture conditions. […] GSPT1 level was determined in along with the Nano-Glo HiBiT Lytic Detection system [Promega N3050] with final concentration of 1×. The luminescence was normalized to that of DMSO-treated samples. DC50 values were obtained using three-parameter non-linear regressions using Prism (GraphPad).

The next assay deals with NCI-H1155 cells. Kind of assay: NSCLC cell viability, CellTiter-Glo, NCI-H1155 cells. The assay is classed as cell-based. The settings on record: Homo sapiens, read-out: Cell viability classification (NCI-H1155). Background: In ATP-based viability assays light output follows the ATP content of the culture.
The mark [1] stands for this setting: DC50, GSPT1_HiBIT_HEK293 cells, 16 hours, Nano-Glo HiBiT Lytic Detection; read-out: GSPT1 degradation classification.
Setting [2] is: NCI-H1155 cells, CellTiter-Glo, 72 hours of treatment.
The mark [3] stands for this setting: read-out: GSPT1 degradation classification; DC50, GSPT1_HiBIT_HEK293 cells, 16 hours, Nano-Glo HiBiT Lytic Detection.

Read-outs that look alike come from different tables or passages of the source. Some results are limits rather than exact numbers.

Chain of GSPT1 (P15170 whole entry): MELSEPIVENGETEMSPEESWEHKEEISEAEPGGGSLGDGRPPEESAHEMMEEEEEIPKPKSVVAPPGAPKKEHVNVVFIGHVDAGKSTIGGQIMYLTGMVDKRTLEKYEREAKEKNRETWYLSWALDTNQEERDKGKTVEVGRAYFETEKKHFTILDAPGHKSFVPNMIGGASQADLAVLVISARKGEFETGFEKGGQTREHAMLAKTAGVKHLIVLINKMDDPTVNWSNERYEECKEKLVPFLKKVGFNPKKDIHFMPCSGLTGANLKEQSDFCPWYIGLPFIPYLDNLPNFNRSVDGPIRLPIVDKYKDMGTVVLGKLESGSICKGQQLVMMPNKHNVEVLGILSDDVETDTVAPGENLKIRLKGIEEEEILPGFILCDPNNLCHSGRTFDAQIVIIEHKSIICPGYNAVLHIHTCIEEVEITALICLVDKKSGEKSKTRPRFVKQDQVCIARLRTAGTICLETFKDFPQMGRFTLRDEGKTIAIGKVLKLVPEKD
Chain of GSPT1 (Q96SW2 whole entry): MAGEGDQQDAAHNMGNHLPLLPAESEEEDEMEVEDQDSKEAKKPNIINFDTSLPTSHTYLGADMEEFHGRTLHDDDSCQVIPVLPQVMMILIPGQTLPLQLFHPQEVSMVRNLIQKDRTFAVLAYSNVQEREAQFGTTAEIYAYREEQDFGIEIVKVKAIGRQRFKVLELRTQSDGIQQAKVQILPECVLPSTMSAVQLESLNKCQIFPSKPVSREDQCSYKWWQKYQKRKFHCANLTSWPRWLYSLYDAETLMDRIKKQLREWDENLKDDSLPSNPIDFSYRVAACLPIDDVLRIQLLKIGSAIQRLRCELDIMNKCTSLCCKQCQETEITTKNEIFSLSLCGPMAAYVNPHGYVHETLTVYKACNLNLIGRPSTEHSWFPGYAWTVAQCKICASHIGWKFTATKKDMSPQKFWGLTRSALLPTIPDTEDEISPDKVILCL
Chain of GSPT1 (Q16531 whole entry partner): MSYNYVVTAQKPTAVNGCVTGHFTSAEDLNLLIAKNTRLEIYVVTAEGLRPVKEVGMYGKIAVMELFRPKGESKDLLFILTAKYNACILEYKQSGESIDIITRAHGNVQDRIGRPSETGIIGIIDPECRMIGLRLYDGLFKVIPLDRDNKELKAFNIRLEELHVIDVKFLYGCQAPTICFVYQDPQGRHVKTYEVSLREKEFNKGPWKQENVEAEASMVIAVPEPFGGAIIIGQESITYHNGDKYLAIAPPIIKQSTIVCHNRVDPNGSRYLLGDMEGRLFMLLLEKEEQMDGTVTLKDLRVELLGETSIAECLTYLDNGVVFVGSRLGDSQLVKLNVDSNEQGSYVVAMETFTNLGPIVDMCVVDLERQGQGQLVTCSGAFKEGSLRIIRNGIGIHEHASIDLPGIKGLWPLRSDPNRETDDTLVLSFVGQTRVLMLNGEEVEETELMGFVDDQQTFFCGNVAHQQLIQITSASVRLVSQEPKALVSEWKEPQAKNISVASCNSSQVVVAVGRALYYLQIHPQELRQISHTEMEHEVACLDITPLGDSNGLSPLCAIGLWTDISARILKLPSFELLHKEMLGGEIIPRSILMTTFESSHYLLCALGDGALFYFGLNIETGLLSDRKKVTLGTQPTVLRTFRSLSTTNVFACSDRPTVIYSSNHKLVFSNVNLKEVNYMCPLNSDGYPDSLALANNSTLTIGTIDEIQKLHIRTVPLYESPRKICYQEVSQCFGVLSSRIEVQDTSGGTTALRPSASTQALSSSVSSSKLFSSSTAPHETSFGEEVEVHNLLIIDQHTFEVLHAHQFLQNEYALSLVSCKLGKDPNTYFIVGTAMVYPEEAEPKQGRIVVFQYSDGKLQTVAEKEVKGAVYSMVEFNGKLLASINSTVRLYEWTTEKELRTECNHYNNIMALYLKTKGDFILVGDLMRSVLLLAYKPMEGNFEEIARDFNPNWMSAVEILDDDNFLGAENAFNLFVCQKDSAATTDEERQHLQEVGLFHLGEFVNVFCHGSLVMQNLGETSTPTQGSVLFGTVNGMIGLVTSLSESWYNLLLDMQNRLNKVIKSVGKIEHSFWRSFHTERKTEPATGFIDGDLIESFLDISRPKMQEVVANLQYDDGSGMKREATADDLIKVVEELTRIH

Take `O=C1CCC(c2nc3cc(COC(=O)Nc4cc(OC(F)(F)F)ccc4F)ccc3o2)C(=O)N1` (stereo not drawn) [Example 164, (2-(2,6-dioxopiperidin-3-yl)benzo[d]oxazol-5-yl)methyl (2-fluoro-5-(trifluoromethoxy)phenyl)carbamate]: the DC50 on GSPT1 (setting [1]) fell in the range of 100 to 300 nM. Besides, the IC50 in the assay with NCI-H1155 cells (setting [2]) is 10 to 100 nM.

On to `O=C1CCC(N2Cc3cc(C(=O)N4CC5(C=C(c6ccc(F)cc6)C5)C4)ccc3C2=O)C(=O)N1` (stereo not drawn) [Example 169, 3-(5-(6-(4-fluorophenyl)-2-azaspiro[3.3]hept-5-ene-2-carbonyl)-1-oxoisoindolin-2-yl)piperidine-2,6-dione], for which the DC50 on GSPT1 (setting [3]) was > 1000 nM. For the same molecule, the IC50 with NCI-H1155 cells (setting [2]) lay in the range of 10 to 100 nM.

With `O=C1CCC(c2nc3ccc(C(=O)N4Cc5cccc(C(F)(F)F)c5C4)cc3o2)C(=O)N1` (stereo not drawn) [Example 174, 3-(6-(4-(trifluoromethyl)isoindoline-2-carbonyl)benzo[d]oxazol-2-yl)piperidine-2,6-dione], the DC50 at GSPT1 (setting [1]) lay in the range of 300 to 1000 nM. Besides, the IC50 in the assay with NCI-H1155 cells (setting [2]) lay in the range of 100 to 1000 nM.

Consider `O=C1CCC(c2nc3ccc(C(=O)N4Cc5cc(F)cc(F)c5C4)cc3o2)C(=O)N1` (stereo not drawn) [Example 176, 3-(6-(4,6-difluoroisoindoline-2-carbonyl)benzo[d]oxazol-2-yl)piperidine-2,6-dione], for which the DC50 at GSPT1 (setting [1]) lay in the range of 300 to 1000 nM. Moreover, the IC50 with NCI-H1155 cells (setting [2]) lay within 100 to 1000 nM.

Consider `O=C1CCC(c2nc3ccc(C(=O)N4Cc5cc(F)cc(Cl)c5C4)cc3o2)C(=O)N1` (stereo not drawn) [Example 178, 3-(6-(4-chloro-6-fluoroisoindoline-2-carbonyl)benzo[d]oxazol-2-yl)piperidine-2,6-dione], for which the DC50 at GSPT1 (setting [1]) lay in the range of 300 to 1000 nM. Besides, the IC50 with NCI-H1155 cells (setting [2]) lay within 10 to 100 nM.

`O=C1CCC(N2Cc3cc(C(=O)N4Cc5cccc(F)c5C45CC5)ccc3C2=O)C(=O)N1` (stereo not drawn) [Example 182, 3-(5-(7′-fluorospiro[cyclopropane-1,1′-isoindoline]-2′-carbonyl)-1-oxoisoindolin-2-yl)piperidine-2,6-dione]: the DC50 at GSPT1 (setting [3]) is < 100 nM. Also, in the assay on NCI-H1155 cells (setting [2]), the IC50 was < 10 nM.

Turning to `O=C1CCC(N2Cc3cc(C(=O)N4CC5(CCC(OC(F)(F)F)CC5)C4)ccc3C2=O)C(=O)N1` (stereo not drawn) [Example 184, 3-(1-oxo-5-(7-(trifluoromethoxy)-2-azaspiro[3.5]nonane-2-carbonyl)isoindolin-2-yl)piperidine-2,6-dione], the DC50 at GSPT1 (setting [1]) lay in the range of 100 to 300 nM. Also, in the assay with NCI-H1155 cells (setting [2]), the IC50 is 10 to 100 nM.

`O=C1CCC(N2Cc3cc(C(=O)N4CCC5(C4)CC(F)(F)C5)ccc3C2=O)C(=O)N1` (stereo not drawn) [Example 189, 3-(5-(2,2-difluoro-6-azaspiro[3.4]octane-6-carbonyl)-1-oxoisoindolin-2-yl)piperidine-2,6-dione]: the DC50 at GSPT1 (setting [3]) is > 1000 nM. Besides, the IC50 in the assay with NCI-H1155 cells (setting [2]) was in the range of 100 to 1000 nM.

Take `O=C1CCC(N2Cc3cc(C(=O)N4CC5(CC(c6ccccc6F)C5)C4)ccc3C2=O)C(=O)N1` (stereo not drawn) [Example 196, 3-(5-(6-(2-fluorophenyl)-2-azaspiro[3.3]heptane-2-carbonyl)-1-oxoisoindolin-2-yl)piperidine-2,6-dione]: on GSPT1 (setting [1]), the DC50 is < 100 nM. For the same molecule, the IC50 in the assay with NCI-H1155 cells (setting [2]) was in the range of 10 to 100 nM.

Take `O=C1CCC(c2nc3ccc(C(=O)N4Cc5ccc(F)c(Cl)c5C4)cc3o2)C(=O)N1` (stereo not drawn) [Example 197, 3-(6-(4-chloro-5-fluoroisoindoline-2-carbonyl)benzo[d]oxazol-2-yl)piperidine-2,6-dione]: on GSPT1 (setting [1]), the DC50 is > 1000 nM. Besides, the IC50 in the assay with NCI-H1155 cells (setting [2]) was 100 to 1000 nM.

On to `O=C1CCC(c2nc3ccc(C(=O)N4CC5(CCC(F)(F)C5)C4)cc3o2)C(=O)N1` (stereo not drawn) [Example 198, 3-(6-(6,6-difluoro-2-azaspiro[3.4]octane-2-carbonyl)benzo[d]oxazol-2-yl)piperidine-2,6-dione], for which the DC50 on GSPT1 (setting [1]) was > 1000 nM. Moreover, the IC50 in the assay with NCI-H1155 cells (setting [2]) was > 1000 nM.

For the molecule `Cc1cc(F)c2c(c1)CN(C(=O)c1ccc3nc(C4CCC(=O)NC4=O)oc3c1)C2` (stereo not drawn) [Example 199, 3-(6-(4-fluoro-6-methylisoindoline-2-carbonyl)benzo[d]oxazol-2-yl)piperidine-2,6-dione], the DC50 at GSPT1 (setting [1]) is > 1000 nM. In the assay with NCI-H1155 cells (setting [2]), the IC50 was 100 to 1000 nM.

For `N#Cc1cc(F)c2c(c1)CN(C(=O)c1ccc3nc(C4CCC(=O)NC4=O)oc3c1)C2` (stereo not drawn) [Example 200, 2-(2-(2,6-dioxopiperidin-3-yl)benzo[d]oxazole-6-carbonyl)-7-fluoroisoindoline-5-carbonitrile], at GSPT1 (setting [1]), the DC50 was > 1000 nM. In addition, the IC50 in the assay with NCI-H1155 cells (setting [2]) was in the range of 100 to 1000 nM.

Take `O=C1CCC(N2Cc3cc(C(=O)N4CCC5(CCC(F)(F)C5)C4)ccc3C2=O)C(=O)N1` (stereo not drawn) [Example 201, 3-(5-(7,7-difluoro-2-azaspiro[4.4]nonane-2-carbonyl)-1-oxoisoindolin-2-yl)piperidine-2,6-dione]: the DC50 at GSPT1 (setting [3]) is > 1000 nM. For the same molecule, the IC50 with NCI-H1155 cells (setting [2]) lay in the range of 100 to 1000 nM.

With `O=C1CCC(N2Cc3cc(C(=O)N4CC(F)(c5ccccc5F)C4)ccc3C2=O)C(=O)N1` (stereo not drawn) [Example 202, 3-(5-(3-fluoro-3-(2-fluorophenyl)azetidine-1-carbonyl)-1-oxoisoindolin-2-yl)piperidine-2,6-dione], the DC50 at GSPT1 (setting [3]) fell in the range of 100 to 300 nM. In addition, in the assay on NCI-H1155 cells (setting [2]), the IC50 is 10 to 100 nM.

As to `O=C1CCC(N2Cc3cc(C(=O)N4CC5(C4)CC(F)(c4cccc(F)c4)C5)ccc3C2=O)C(=O)N1` (stereo not drawn) [Example 203, 3-(5-(6-fluoro-6-(3-fluorophenyl)-2-azaspiro[3.3]heptane-2-carbonyl)-1-oxoisoindolin-2-yl)piperidine-2,6-dione], the DC50 at GSPT1 (setting [3]) is > 1000 nM. In addition, in the assay with NCI-H1155 cells (NCI-H1155, 72 h), the IC50 was in the range of 100 to 1000 nM.

For `O=C1CCC(N2Cc3cc(C(=O)N4CC5(C4)CC(F)(c4ccccc4F)C5)ccc3C2=O)C(=O)N1` (stereo not drawn) [Example 204, 3-(5-(6-fluoro-6-(2-fluorophenyl)-2-azaspiro[3.3]heptane-2-carbonyl)-1-oxoisoindolin-2-yl)piperidine-2,6-dione], at GSPT1 (setting [3]), the DC50 is 100 to 300 nM. Further, the IC50 in the assay with NCI-H1155 cells (setting [2]) is 100 to 1000 nM.

With `O=C1CCC(N2Cc3cc(C(=O)N4CC5(CC(c6ccc(F)cc6)C5)C4)ccc3C2=O)C(=O)N1` (stereo not drawn) [Example 205, 3-(5-(6-(4-fluorophenyl)-2-azaspiro[3.3]heptane-2-carbonyl)-1-oxoisoindolin-2-yl)piperidine-2,6-dione], the DC50 at GSPT1 (setting [1]) lay in the range of 100 to 300 nM. Also, the IC50 in the assay on NCI-H1155 cells (setting [2]) fell in the range of 10 to 100 nM.

In the case of `O=C1CCC(c2nc3ccc(C(=O)N4CC5(C=C(c6ccc(F)cc6)C5)C4)cc3o2)C(=O)N1` (stereo not drawn) [Example 206, 3-(6-(6-(4-fluorophenyl)-2-azaspiro[3.3]hept-5-ene-2-carbonyl)benzo[d]oxazol-2-yl)piperidine-2,6-dione], the DC50 at GSPT1 (setting [1]) was > 1000 nM. Moreover, in the assay on NCI-H1155 cells (setting [2]), the IC50 is > 1000 nM.

Take `O=C1CCC(N2Cc3cc(C(=O)N4CC5(C=C(c6cccc(F)c6)C5)C4)ccc3C2=O)C(=O)N1` (stereo not drawn) [Example 207, 3-(5-(6-(3-fluorophenyl)-2-azaspiro[3.3]hept-5-ene-2-carbonyl)-1-oxoisoindolin-2-yl)piperidine-2,6-dione]: at GSPT1 (setting [3]), the DC50 was < 100 nM. Also, the IC50 in the assay with NCI-H1155 cells (setting [2]) is 10 to 100 nM.

On to `O=C1CCC(N2Cc3cc(C(=O)N4CC5(C=C(c6ccccc6F)C5)C4)ccc3C2=O)C(=O)N1` (stereo not drawn) [Example 208, 3-(5-(6-(2-fluorophenyl)-2-azaspiro[3.3]hept-5-ene-2-carbonyl)-1-oxoisoindolin-2-yl)piperidine-2,6-dione], for which, on GSPT1 (setting [3]), the DC50 is < 100 nM. The IC50 in the assay with NCI-H1155 cells (setting [2]) is < 10 nM.

For the molecule `O=C1CCC(N2Cc3cc(C(=O)N4CC5(C=C(c6ccc(C(F)(F)F)cc6)C5)C4)ccc3C2=O)C(=O)N1` (stereo not drawn) [Example 209, 3-(1-oxo-5-(6-(4-(trifluoromethyl)phenyl)-2-azaspiro[3.3]hept-5-ene-2-carbonyl)isoindolin-2-yl)piperidine-2,6-dione], the DC50 at GSPT1 (setting [3]) is < 100 nM. In the assay on NCI-H1155 cells (setting [2]), the IC50 is < 10 nM.

As to `O=C1CCC(c2nc3ccc(C(=O)N4Cc5c(F)ccc(OC(F)(F)F)c5C4)cc3o2)C(=O)N1` (stereo not drawn) [Example 210, 3-(6-(4-fluoro-7-(trifluoromethoxy)isoindoline-2-carbonyl)benzo[d]oxazol-2-yl)piperidine-2,6-dione], on GSPT1 (setting [1]), the DC50 is > 1000 nM. Moreover, the IC50 in the assay on NCI-H1155 cells (setting [2]) is > 1000 nM.

`O=C1CCC(c2nc3ccc(C(=O)N4Cc5cccc(F)c5C45CC5)cc3o2)C(=O)N1` (stereo not drawn) [Example 211, 3-(6-(7′-fluorospiro[cyclopropane-1,1′-isoindoline]-2′-carbonyl)benzo[d]oxazol-2-yl)piperidine-2,6-dione]: the DC50 at GSPT1 (setting [1]) was > 1000 nM. Also, the IC50 with NCI-H1155 cells (setting [2]) lay within 100 to 1000 nM.

For the molecule `O=C1CCC(N2Cc3cc(C(=O)NC4CC5(C4)CC(c4ccc(F)c(F)c4)C5)ccc3C2=O)C(=O)N1` (stereo not drawn) [Example 217, N-(6-(3,4-difluorophenyl)spiro[3.3]heptan-2-yl)-2-(2,6-dioxopiperidin-3-yl)-1-oxoisoindoline-5-carboxamide], the DC50 at GSPT1 (setting [1]) is 100 to 300 nM. Besides, in the assay with NCI-H1155 cells (setting [2]), the IC50 lay in the range of 10 to 100 nM.

Regarding `O=C1CCC(N2Cc3cc(C(=O)NC4CC5(C4)CC(c4ccc(F)cc4F)C5)ccc3C2=O)C(=O)N1` (stereo not drawn) [Example 218, N-(6-(2,4-difluorophenyl)spiro[3.3]heptan-2-yl)-2-(2,6-dioxopiperidin-3-yl)-1-oxoisoindoline-5-carboxamide], the DC50 at GSPT1 (setting [1]) is < 100 nM. In the assay with NCI-H1155 cells (setting [2]), the IC50 was < 10 nM.

In the case of `N#Cc1ccc(C2CC3(CC(NC(=O)c4ccc5c(c4)CN(C4CCC(=O)NC4=O)C5=O)C3)C2)cc1` (stereo not drawn) [Example 219, N-(6-(4-cyanophenyl)spiro[3.3]heptan-2-yl)-2-(2,6-dioxopiperidin-3-yl)-1-oxoisoindoline-5-carboxamide], the DC50 at GSPT1 (setting [1]) lay within 100 to 300 nM. Moreover, the IC50 in the assay on NCI-H1155 cells (setting [2]) was 10 to 100 nM.
